Results from BindingDB's records for patent US12466809 (Dana-Farber Cancer Institute, 2025).

Biological target: Cyclin-A2/Cyclin-dependent kinase 2 (Homo sapiens, UniProt P24941)
Experiment: Biochemical Assay
Description: CDK2 and CDK5 IC50 data were attained through the use of Invitrogen™ commercial assays. The method for CDK2 (assay ID: 315, kinase|Z'-LYTE™|CDK2/Cyclin A|Km app) used a 10-point titration. The method for CDK5 (assay ID: 318, kinase|Z'-LYTE™|CDK5/p25|Km app) used a 10-point titration. All the bifunctional compounds showed potent biochemical inhibition on both CDK2/5 enzymes.

Row | SMILES | IC50 [nM]
1 | Cc1ncsc1-c1ccc([C@H](C)NC(=O)[C@@H]2C[C@@H](O)CN2C(=O)[C@@H](NC(=O)CCOCCOCCC(=O)NCCS(=O)(=O)N2CCC(Nc3ncc(Br)c(Nc4cccc(F)c4C(N)=O)n3)CC2)C(C)(C)C)cc1 [US12466809, Compound 11] | 6.8
2 | Cc1ncsc1-c1ccc([C@H](C)NC(=O)[C@@H]2C[C@@H](O)CN2C(=O)[C@@H](NC(=O)CCC(=O)NCCS(=O)(=O)N2CCC(Nc3ncc(Br)c(Nc4cccc(F)c4C(N)=O)n3)CC2)C(C)(C)C)cc1 [US12466809, Compound 12] | 5.3
3 | NC(=O)c1c(F)cccc1Nc1nc(NC2CCN(S(=O)(=O)CCNC(=O)CCC(=O)NCCCCCNc3cccc4c3C(=O)N(C3CCC(=O)NC3=O)C4=O)CC2)ncc1Br (stereo unspecified) [US12466809, Compound 13] | 3.8
4 | NC(=O)c1c(F)cccc1Nc1nc(NC2CCN(S(=O)(=O)CCNC(=O)CCCCCCCCC#Cc3cccc4c3CN(C3CCC(=O)NC3=O)C4=O)CC2)ncc1Br (stereo unspecified) [US12466809, Compound 14] | 57.2
5 | NC(=O)c1c(F)cccc1Nc1nc(NC2CCN(S(=O)(=O)CCNC(=O)CCCCCCCCCCc3cccc4c3CN(C3CCC(=O)NC3=O)C4=O)CC2)ncc1Br (stereo unspecified) [US12466809, Compound 15] | 50
6 | O=C(CCCCCCCCC#Cc1cccc2c1CN(C1CCC(=O)NC1=O)C2=O)NCCS(=O)(=O)N1CCC(Nc2ncc(Br)c(Nc3cccc4c3OCO4)n2)CC1 (stereo unspecified) [US12466809, Compound 16] | > 370
